Key:
[1] = target: T1, Solute carrier organic anion transporter family member 1B1 (Homo sapiens, UniProt Q9Y6L6); assay: (§1) TP_TRANSPORTER: inhibition of E1S uptake in Xenopus laevis oocytes; assay type: functional, cell-based, Oocyte
T1 sequence (Q9Y6L6 whole entry): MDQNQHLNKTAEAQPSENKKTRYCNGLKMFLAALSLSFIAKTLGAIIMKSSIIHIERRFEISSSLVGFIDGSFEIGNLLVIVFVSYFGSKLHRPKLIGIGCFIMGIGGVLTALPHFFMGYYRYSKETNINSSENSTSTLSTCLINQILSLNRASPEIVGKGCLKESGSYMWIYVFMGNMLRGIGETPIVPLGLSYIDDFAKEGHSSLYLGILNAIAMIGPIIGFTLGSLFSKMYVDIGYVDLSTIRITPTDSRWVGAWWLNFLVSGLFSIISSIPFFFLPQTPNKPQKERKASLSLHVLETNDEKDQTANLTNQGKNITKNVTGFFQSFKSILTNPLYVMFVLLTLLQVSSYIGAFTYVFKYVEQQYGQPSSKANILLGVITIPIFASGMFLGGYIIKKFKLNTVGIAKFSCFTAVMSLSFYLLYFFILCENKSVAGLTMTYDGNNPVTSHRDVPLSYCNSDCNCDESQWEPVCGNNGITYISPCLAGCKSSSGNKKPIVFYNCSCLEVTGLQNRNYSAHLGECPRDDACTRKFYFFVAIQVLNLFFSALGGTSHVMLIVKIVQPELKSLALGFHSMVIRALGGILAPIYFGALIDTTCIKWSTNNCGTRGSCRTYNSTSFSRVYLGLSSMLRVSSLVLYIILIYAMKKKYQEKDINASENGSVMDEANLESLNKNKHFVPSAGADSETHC

[2] = target: T2, Solute carrier organic anion transporter family member 1B2 (Rattus norvegicus, UniProt Q9QZX8); assay: as §1; assay type: functional, cell-based, Oocyte
T2 sequence (Q9QZX8 whole entry): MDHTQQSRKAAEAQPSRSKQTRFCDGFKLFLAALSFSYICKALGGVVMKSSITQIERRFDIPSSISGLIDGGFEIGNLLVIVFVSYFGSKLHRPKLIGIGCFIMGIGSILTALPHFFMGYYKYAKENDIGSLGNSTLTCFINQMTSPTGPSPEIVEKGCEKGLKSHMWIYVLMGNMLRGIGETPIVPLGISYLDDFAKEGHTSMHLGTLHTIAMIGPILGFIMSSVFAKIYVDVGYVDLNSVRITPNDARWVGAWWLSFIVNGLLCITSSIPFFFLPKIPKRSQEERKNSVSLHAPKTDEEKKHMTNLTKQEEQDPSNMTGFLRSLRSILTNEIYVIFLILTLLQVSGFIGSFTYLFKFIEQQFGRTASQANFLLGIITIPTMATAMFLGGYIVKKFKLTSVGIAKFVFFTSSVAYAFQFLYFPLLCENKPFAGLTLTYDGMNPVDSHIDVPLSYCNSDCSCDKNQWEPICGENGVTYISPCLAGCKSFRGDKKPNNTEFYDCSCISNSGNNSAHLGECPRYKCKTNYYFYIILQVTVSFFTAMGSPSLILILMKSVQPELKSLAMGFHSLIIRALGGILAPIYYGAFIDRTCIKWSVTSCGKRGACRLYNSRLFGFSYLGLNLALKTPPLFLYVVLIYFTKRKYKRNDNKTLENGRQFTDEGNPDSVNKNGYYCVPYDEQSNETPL

[3] = target: T3, Solute carrier organic anion transporter family member 1B3 (Homo sapiens, UniProt Q9NPD5); assay: TP_TRANSPORTER: inhibition of BSP uptake in Xenopus laevis oocytes; assay type: functional, cell-based, Oocyte
T3 sequence (Q9NPD5 whole entry): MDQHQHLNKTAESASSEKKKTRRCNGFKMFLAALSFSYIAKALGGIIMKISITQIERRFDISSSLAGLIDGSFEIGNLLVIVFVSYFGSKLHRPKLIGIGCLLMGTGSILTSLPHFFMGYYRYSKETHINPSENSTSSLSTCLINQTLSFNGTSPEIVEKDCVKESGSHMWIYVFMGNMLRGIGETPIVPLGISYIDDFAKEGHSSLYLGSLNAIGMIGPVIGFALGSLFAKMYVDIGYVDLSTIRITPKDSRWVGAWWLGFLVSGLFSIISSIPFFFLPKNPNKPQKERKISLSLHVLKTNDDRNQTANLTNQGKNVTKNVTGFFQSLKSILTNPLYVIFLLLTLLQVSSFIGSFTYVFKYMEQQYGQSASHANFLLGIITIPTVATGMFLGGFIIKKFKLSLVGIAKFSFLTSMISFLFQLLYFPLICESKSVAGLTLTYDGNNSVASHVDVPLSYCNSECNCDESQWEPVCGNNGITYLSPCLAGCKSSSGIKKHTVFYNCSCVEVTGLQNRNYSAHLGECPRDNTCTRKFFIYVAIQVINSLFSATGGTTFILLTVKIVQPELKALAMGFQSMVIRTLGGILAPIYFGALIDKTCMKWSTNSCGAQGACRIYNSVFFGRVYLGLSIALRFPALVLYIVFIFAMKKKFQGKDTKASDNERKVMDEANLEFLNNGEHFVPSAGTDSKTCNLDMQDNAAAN

[4] = target: T4, Solute carrier organic anion transporter family member 1A1 (Rattus norvegicus, UniProt P46720); assay: (§2) TP_TRANSPORTER: inhibition of E1S uptake (E1S: 0.05 uM, GL: 100 uM) in Xenopus laevis oocytes; assay type: functional, cell-based; design: scale not given: the % may be the effect or the level left; details: oocyte
T4 sequence (P46720 whole entry): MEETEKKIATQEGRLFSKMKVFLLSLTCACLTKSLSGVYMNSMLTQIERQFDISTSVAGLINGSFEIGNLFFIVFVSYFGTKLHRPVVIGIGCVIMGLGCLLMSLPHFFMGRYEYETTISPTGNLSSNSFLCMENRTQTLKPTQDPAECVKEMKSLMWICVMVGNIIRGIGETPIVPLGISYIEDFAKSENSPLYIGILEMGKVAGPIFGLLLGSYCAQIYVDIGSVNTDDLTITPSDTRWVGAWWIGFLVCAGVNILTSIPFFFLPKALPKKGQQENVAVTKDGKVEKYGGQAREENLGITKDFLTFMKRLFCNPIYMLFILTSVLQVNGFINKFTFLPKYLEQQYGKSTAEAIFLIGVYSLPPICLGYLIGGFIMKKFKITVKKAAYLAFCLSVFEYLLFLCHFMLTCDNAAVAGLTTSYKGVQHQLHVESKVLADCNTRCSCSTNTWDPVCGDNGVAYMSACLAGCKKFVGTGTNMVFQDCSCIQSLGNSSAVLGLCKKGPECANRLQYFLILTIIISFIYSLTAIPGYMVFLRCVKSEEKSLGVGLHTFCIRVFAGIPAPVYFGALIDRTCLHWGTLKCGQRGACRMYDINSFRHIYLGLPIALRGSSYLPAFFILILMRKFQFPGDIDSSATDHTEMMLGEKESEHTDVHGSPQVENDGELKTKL

[5] = target: T5, Solute carrier organic anion transporter family member 2B1 (Homo sapiens, UniProt O94956); assay: TP_TRANSPORTER: inhibition of E1S uptake (E1S: 0.05 uM, GL: 100 uM) of Glycyrrhizic acid at a concentration of 100 u M in Xenopus laevis oocytes; assay type: functional, cell-based; details: oocyte
T5 sequence (O94956 whole entry): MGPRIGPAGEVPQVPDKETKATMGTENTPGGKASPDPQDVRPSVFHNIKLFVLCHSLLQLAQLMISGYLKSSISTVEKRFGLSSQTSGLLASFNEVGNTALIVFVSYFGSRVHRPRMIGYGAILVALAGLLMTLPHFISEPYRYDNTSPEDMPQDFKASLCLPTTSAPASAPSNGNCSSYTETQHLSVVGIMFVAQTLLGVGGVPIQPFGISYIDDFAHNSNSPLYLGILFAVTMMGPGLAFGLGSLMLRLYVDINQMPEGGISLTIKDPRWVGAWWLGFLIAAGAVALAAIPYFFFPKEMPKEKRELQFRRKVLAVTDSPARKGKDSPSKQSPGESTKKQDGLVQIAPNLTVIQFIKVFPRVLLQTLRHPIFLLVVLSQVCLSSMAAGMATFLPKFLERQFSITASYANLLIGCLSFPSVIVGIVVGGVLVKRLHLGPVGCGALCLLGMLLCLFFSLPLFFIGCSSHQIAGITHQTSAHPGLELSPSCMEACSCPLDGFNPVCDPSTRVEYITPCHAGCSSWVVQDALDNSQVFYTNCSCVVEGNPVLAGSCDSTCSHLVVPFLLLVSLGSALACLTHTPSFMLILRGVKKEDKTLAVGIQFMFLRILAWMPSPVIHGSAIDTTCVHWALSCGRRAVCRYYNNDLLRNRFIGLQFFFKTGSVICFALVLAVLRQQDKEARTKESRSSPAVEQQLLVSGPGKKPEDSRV

[6] = target: T6, Solute carrier organic anion transporter family member 1A2 (Homo sapiens, UniProt P46721); assay: TP_TRANSPORTER: inhibition of E1S uptake (E1S: 0.05 uM, GL: 100 uM) by Glycyrrhizic acid at a concentration of 100 u M in Xenopus laevis oocytes; assay type: functional, cell-based; details: oocyte
T6 sequence (P46721 whole entry): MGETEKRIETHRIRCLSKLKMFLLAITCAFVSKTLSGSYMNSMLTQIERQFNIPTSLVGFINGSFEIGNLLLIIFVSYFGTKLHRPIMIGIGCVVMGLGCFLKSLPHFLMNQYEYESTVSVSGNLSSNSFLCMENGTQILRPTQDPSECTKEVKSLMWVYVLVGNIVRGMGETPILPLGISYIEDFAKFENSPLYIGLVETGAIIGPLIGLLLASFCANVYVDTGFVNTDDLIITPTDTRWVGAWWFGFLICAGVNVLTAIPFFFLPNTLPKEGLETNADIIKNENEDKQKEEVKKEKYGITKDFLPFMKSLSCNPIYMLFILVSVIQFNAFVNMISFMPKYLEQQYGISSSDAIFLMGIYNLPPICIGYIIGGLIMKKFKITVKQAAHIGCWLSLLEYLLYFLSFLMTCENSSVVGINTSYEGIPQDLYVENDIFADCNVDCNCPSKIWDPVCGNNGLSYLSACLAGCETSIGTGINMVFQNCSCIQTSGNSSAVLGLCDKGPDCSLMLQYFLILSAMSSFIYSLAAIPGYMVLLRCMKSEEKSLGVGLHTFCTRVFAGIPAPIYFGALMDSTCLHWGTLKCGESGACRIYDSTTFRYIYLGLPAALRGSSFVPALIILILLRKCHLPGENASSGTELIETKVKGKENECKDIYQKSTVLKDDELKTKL

[7] = target: T7, Solute carrier organic anion transporter family member 1A5 (OATP1A5) (Rattus norvegicus, UniProt O88397); assay: as §2; assay type: functional, cell-based, Oocyte; design: scale not given: the % may be the effect or the level left; details: Xenopus laevis oocytes expressing OATP1A5, probe E1S (0.05 uM), read-out: Activity
T7 sequence (O88397 whole entry): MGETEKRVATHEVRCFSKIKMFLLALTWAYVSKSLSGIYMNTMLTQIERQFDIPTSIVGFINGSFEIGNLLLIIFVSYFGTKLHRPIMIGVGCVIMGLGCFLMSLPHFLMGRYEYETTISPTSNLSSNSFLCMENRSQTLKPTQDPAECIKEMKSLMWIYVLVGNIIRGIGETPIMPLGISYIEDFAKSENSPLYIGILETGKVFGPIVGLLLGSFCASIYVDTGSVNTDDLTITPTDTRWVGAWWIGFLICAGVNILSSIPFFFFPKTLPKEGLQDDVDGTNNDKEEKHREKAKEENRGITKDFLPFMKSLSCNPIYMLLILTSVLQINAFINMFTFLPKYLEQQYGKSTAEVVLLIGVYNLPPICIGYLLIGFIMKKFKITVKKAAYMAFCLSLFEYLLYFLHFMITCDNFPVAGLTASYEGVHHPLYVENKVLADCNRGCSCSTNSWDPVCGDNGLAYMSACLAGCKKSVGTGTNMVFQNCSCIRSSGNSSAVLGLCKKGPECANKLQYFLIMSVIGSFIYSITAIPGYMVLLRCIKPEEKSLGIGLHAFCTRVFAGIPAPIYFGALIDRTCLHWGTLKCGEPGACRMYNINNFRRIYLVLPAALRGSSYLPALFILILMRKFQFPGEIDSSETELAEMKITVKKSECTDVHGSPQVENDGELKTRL

[8] = target: T8, Solute carrier organic anion transporter family member 1A4 (OATP1A4) (Rattus norvegicus, UniProt O35913); assay: as §2; assay type: functional, cell-based, Oocyte; design: scale not given: the % may be the effect or the level left; details: Xenopus laevis oocytes expressing OATP1A4, probe E1S (0.05 uM), read-out: Activity
T8 sequence (O35913 whole entry): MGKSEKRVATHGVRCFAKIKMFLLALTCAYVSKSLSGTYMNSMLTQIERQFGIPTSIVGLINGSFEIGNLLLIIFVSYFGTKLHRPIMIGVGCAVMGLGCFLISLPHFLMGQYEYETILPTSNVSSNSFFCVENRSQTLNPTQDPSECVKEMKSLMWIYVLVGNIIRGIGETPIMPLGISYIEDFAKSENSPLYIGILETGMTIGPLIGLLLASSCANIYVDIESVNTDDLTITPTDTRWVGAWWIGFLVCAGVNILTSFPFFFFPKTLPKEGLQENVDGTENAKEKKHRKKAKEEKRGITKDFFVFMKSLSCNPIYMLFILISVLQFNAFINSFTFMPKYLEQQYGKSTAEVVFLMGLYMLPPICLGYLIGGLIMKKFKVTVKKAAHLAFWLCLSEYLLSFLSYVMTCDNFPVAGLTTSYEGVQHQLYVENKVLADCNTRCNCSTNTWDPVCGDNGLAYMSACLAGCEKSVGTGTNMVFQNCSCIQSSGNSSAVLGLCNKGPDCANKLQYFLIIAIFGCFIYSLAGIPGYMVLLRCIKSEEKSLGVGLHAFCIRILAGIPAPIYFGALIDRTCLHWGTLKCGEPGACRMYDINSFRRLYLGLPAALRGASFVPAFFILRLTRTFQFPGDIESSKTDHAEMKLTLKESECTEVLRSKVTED

[9] = target: T9, Solute carrier organic anion transporter family member 1B3 (OATP1B3) (Homo sapiens, UniProt Q9NPD5); assay: as §2; assay type: functional, cell-based, Oocyte; design: scale not given: the % may be the effect or the level left; details: Xenopus laevis oocytes expressing OATP1B3, probe E1S (0.05 uM), read-out: Activity
T9 sequence (Q9NPD5 whole entry): T3 sequence (Q9NPD5 whole entry)

Ki [1]: 15.9 µM
Ki [2]: 6.1 µM
Ki [3]: 12.5 µM
Activity [4]: 52%
Activity [5]: is not an inhibitor [-]
Activity [6]: is not an inhibitor [-]
activity at 100 µM [7]: 51%
activity at 100 µM [8]: 47%
activity at 100 µM [9]: 0%
SMILES: CC1(C)[C@@H](O[C@H]2O[C@H](C(=O)O)[C@@H](O)[C@H](O)[C@H]2O[C@@H]2O[C@H](C(=O)O)[C@@H](O)[C@H](O)[C@H]2O)CC[C@]2(C)[C@H]3C(=O)C=C4[C@@H]5C[C@@](C)(C(=O)O)CC[C@]5(C)CC[C@@]4(C)[C@]3(C)CC[C@@H]12 [GLYCYRRHIZIN]
